According to US11618747B2, “LXR modulators with bicyclic core moiety” (OrsoBio, Inc., priority 2018, dated 2023):
Like-named read-outs stand apart in the source and are kept apart here.

Key:
[1] = target: T1, LXRβ ligand-binding domain (Homo sapiens, UniProt P55055, DUP175-175); assay: TR-FRETβ activity assay (NCoA3 coactivator peptide recruitment); format: biochemical
T1 construct: amino acids 156-461; NP009052; made in house; host or cells: E. coli
T1 sequence (P55055 with tags, fused parts or gaps DUP175-175 limits assumed): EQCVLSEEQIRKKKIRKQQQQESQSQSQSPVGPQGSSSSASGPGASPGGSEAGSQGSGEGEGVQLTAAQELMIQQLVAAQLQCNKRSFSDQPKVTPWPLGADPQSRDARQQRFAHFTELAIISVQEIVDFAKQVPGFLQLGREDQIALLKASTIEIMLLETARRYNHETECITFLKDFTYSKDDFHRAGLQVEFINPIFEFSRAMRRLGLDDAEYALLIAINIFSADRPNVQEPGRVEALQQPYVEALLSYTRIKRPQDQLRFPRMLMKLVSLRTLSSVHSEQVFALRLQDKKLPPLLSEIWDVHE
Summary of the method: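 Inverse agonism assessed by loss of coactivator recruitment, read as TR-FRET 665/615 nm after 1 h equilibration at 4 °C, in triplicate. Ten-point titration from 50 μM to 0.002 μM against LXRβ LBD (76 nM, GST fusion) prestimulated with 1 μM 24(S)-25-epoxycholesterol, with 400 nM NCoA3 peptide, pH 6.8. Sulfonyl acetic acids kept as 20 mM DMSO stocks with 100 mM TFA.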

[2] = Short term HFD mouse model: plasma and liver exposure; format: in vivo, mice (C57BL/6J); settings: HFD mice, 4 h after last dose
Procedure: Short Term HFD Mouse Model:
The in vivo transcriptional regulation of several LXR target genes by LXR modulators was assessed in mice.
For this, C57BL/6J were purchased from Elevage Janvier (Rennes, France) at the age of 8 weeks. After an acclimation period of two weeks, animals were preferred on a high fat diet (HFD) (Ssniff Spezialdiäten GmbH, Germany, Surwit EF D12330 mod, Cat. No. E15771-34), with 60 kcal % from fat plus 1% (w/w) extra cholesterol (Sigma-Aldrich, St. Louis, Mo.) for 5 days. Animals were maintained on this diet during treatment with LXR modulators. The test compounds were formulated in 0.5% hydroxypropylmethylcellulose (HPMC) and administered in three doses (from 1.5 to 20 mg/kg each) by oral gavage according to the following schedule: on day one, animals received treatment in the morning and the evening (ca. 17:00), on day two animals received the final treatment in the morning after a 4 h fast and were sacrificed 4 h thereafter. Animal work was conducted according to the national guidelines for animal care in Germany.
Upon termination, liver was collected, dipped in ice cold PBS for 30 seconds and cut into appropriate pieces. Pieces were snap frozen in liquid nitrogen and stored at −80° C. For the clinical chemistry analysis from plasma, alanine aminotransferase (ALT, IU/mL), cholesterol (CHOL, mg/dL) and triglycerides (TG, mg/dL) were determined using a fully-automated bench top analyzer (Respons®910, DiaSys Greiner GmbH, Flacht, Germany) with system kits provided by the manufacturer.

[3] = TR-FRET, 1 μM 24(S)-25-epoxycholesterol prestimulation, read-out: FRETβ (EC50 range)

| Structure (SMILES) | EC50 [1, 3] | liver exposure 4 h ([2]; three oral doses of 20 mg/kg) | liver/plasma ratio 4 h ([2]; three oral doses of 20 mg/kg) | plasma exposure 4 h ([2]; three oral doses of 20 mg/kg) | liver exposure 4 h ([2]; three oral doses of 10 mg/kg) | liver/plasma ratio 4 h ([2]; three oral doses of 10 mg/kg) | plasma exposure 4 h ([2]; three oral doses of 10 mg/kg) | further results |
| --- | --- | --- | --- | --- | --- | --- | --- | --- |
| O=C(O)c1ccc(-c2cccc(-c3c(-c4c(Cl)cccc4Cl)c4cc(F)ccc4n3S(=O)(=O)c3ccc(C(F)F)cc3)c2)c(Cl)c1 [11/13] | < 100 nM | C (1 μM to ≤10 μM) | A (<5) | A (A: >1 μM) |  |  |  |  |
| CC(=O)NS(=O)(=O)c1ccc(-c2cccc(-c3c(-c4c(C#N)cccc4C#N)c4cc(F)ccc4n3S(=O)(=O)c3ccc(C(F)F)cc3)c2)c(Cl)c1 [8/8] | < 100 nM |  |  |  | B (300 nM to ≤1 μM) | B (5 to ≤30) | C (C: 100 nM to <300 nM) |  |
| N#Cc1cccc(C#N)c1-c1c(-c2cccc(-c3cc(F)c(C(=O)O)cc3Cl)c2)n(S(=O)(=O)c2ccc(C(F)F)cc2)c2ccc(F)cc12 [11/65] | < 100 nM |  |  |  | C (1 μM to ≤10 μM) | C (30 to ≤100) | D (D: <100 nM) |  |
| N#Cc1cccc(C#N)c1-c1c(-c2cccc(-c3ccc(C(=O)NCCS(=O)(=O)O)cc3Cl)c2)n(S(=O)(=O)c2ccc(C(F)F)cc2)c2ccc(F)cc12 [10/1] | < 100 nM |  |  |  | B (300 nM to ≤1 μM) | C (30 to ≤100) | D (D: <100 nM) |  |
| COc1c(C(=O)O)ccc(-c2cccc(-c3c(-c4ccccc4C#N)c4cc(F)ccc4n3S(=O)(=O)c3ccc(C(F)F)cc3)c2)c1Cl [11/27] | < 100 nM | C (1 μM to ≤10 μM) | C (30 to ≤100) | D (D: <100 nM) |  |  |  |  |
| N#Cc1cccnc1-c1c(-c2cccc(-c3ccc(C(=O)O)cc3Cl)c2)n(S(=O)(=O)c2ccc(C(F)F)cc2)c2ccc(F)cc12 [11/26] | < 100 nM |  |  |  | C (1 μM to ≤10 μM) | C (30 to ≤100) | C (C: 100 nM to <300 nM) |  |
| N#Cc1nccnc1-c1c(-c2cccc(-c3cc(F)c(C(=O)O)cc3Cl)c2)n(S(=O)(=O)c2ccc(C(F)F)cc2)c2ccc(F)cc12 [11/11] | < 100 nM | D (>10 μM) | D (>100) | D (D: <100 nM) |  |  |  |  |
| Cc1ccc(S(=O)(=O)n2c(-c3cccc(N4CC(C(=O)O)C4)c3)c(-c3ccsc3C#N)c3cc(C)ccc32)cc1 [3/46] | 100 to 1000 nM |  |  |  |  |  |  |  |
| N#Cc1cccc(C#N)c1-c1c(-c2cccc(-c3ccc(C(=O)O)cc3Cl)c2)n(S(=O)(=O)C2CCC(F)(F)CC2)c2ccc(F)cc12 [11/63] | 100 to 1000 nM |  |  |  | C (1 μM to ≤10 μM) | B (5 to ≤30) | D (D: <100 nM) |  |
| N#Cc1ccccc1-c1c(-c2cccc(-c3ccc(C(=O)O)cc3Cl)c2)n(S(=O)(=O)c2ccc(C(F)F)cc2)c2cnccc12 [11/49] | < 100 nM | C (1 μM to ≤10 μM) | D (>100) | D (D: <100 nM) |  |  |  |  |
| Cc1ccc(S(=O)(=O)n2c(-c3cccc(N4CC(C(=O)O)C4)c3)c(-c3ccsc3C#N)c3cc(F)ccc32)cc1 [3/32] | 100 to 1000 nM |  |  |  |  |  |  | FRETβ efficacy (value in brackets) ([1]; 1 μM 24(S)-25-epoxycholesterol as prestimulating agonist): −98%; EC50 ([1]; 1 μM 24(S)-25-epoxycholesterol as prestimulating agonist, read-out: FRETβ potency): 551 nM |
| Cc1ccc(S(=O)(=O)n2c(-c3cccc(C45CCC(C(=O)O)(CC4)CC5)c3)c(-c3ccsc3C#N)c3cc(F)ccc32)cc1 [3/64] | 100 to 1000 nM | D (>10 μM) | D (>100) | C (C: 100 nM to <300 nM) |  |  |  |  |
| Cc1ccc(S(=O)(=O)n2c(-c3cccc(N4CC(C(=O)O)C4)c3)c(-c3ccsc3C#N)c3cc(Cl)ccc32)cc1 [3/44] | 1000 to 10000 nM |  |  |  |  |  |  |  |
| Cc1ccc(S(=O)(=O)n2c(-c3cccc(N4CC(C(=O)O)C4)c3)c(-c3ccsc3C#N)c3cc(F)c(Cl)cc32)cc1 [3/43] | 1000 to 10000 nM |  |  |  |  |  |  |  |
| Cc1ccc(S(=O)(=O)n2c(-c3cccc(N4CC(C(=O)O)C4)c3)c(-c3ccsc3C#N)c3cc(F)c(F)cc32)cc1 [3/42] | 1000 to 10000 nM |  |  |  |  |  |  |  |
